In publication PMC6146777, “Biocompatible glyconanomaterials based on HPMA-copolymer for specific targeting of galectin-3” (Journal of Nanobiotechnology, 2018):

Target: T1, Recombinant human His6-tagged galectin-3 (Gal-3) (Homo sapiens, UniProt P17931)
T1 construct: gene LGALS3; His6-tagged Gal-3 (tag kept), expressed in E. coli Rosetta 2 (DE3) pLysS, 28,023 Da calculated, monomer in solution
Assay: competitive ELISA, Gal-3 binding to immobilized asialofetuin
Conditions: 6.5 µM Gal-3, EPBS buffer pH 7.5, 2 mM EDTA, 2 h; competitive with asialofetuin

T1 sequence (P17931 2-250): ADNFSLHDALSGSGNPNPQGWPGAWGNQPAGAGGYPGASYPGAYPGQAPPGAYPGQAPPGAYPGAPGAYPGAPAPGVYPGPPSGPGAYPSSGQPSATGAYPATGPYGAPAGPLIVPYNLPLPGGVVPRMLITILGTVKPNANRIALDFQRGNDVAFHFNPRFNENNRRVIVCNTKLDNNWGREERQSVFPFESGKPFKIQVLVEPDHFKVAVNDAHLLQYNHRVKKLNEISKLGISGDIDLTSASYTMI

IC50 | SMILES
53 ± 16 µM | CC(=O)N[C@H]1C(O)O[C@H](CO)[C@@H](O[C@@H]2O[C@H](CO)[C@H](O)[C@H](O)[C@H]2O)[C@@H]1O (some centres unmarked) [LacNAc]
64 ± 20 µM | CC(=O)N[C@H]1[C@H](O[C@H]2[C@H](O)[C@@H](NC(C)=O)C(O)O[C@@H]2CO)O[C@H](CO)[C@H](O)[C@@H]1O (stereo partly drawn) [compound 5, 2-acetamido-2-deoxy-β-D-galactopyranosyl-(1 → 4)-2-acetamido-2-deoxy-D-glucopyranose]
